BindingDB's records for doi:10.7270/Q21V5CDC (Burnham Center For Chemical Genomics, 2010)
Where “and” joins values, the source holds several entries; their conditions need not be identical. Equal values may be shown once.

Biological target: T1, Amyloid-beta A4 precursor protein-binding family A member 1 (Rattus norvegicus, UniProt O35430)
T1 sequence (O35430 whole entry): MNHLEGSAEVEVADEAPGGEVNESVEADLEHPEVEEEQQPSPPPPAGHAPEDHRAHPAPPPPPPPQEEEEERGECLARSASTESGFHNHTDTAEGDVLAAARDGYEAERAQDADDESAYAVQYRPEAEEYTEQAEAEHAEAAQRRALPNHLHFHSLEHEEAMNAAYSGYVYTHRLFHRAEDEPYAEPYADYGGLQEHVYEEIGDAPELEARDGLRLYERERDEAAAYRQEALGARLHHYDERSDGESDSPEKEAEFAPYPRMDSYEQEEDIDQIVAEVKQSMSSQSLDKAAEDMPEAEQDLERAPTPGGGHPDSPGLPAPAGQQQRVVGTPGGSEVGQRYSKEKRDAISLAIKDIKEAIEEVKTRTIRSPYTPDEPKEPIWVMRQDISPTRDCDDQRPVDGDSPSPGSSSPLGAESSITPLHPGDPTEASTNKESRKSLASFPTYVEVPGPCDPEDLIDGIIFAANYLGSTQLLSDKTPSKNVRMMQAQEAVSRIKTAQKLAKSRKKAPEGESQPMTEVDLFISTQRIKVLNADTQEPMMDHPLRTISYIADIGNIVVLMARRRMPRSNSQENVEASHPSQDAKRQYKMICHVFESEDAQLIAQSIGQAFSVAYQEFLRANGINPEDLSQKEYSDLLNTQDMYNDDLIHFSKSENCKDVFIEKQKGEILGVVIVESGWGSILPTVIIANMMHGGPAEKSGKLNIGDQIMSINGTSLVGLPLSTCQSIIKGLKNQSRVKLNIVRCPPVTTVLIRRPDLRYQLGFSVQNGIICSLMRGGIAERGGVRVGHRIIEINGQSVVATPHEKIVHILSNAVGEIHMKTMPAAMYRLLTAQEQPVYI
Experiment: disruptors of Mint-PDZ/N-type channel peptide interaction – biochemical, HTRF, SAR follow-up (AID 2489)

`CC12C=CC(C)(O1)c1c2c(O)n(-c2ccc(F)cc2)c1O` [2-(4-fluorophenyl)-4,7-dimethyl-3a,7a-dihydro-octahydro-1H-4,7-epoxyisoindole-1,3-dione] was tested. Which IC50 did it give?
The IC50 was 10.7 µM.

With `CC12C=CC(C)(O1)c1c2c(O)n(-c2ccc(Cl)cc2)c1O` as the molecule, how does the IC50 read?
Its IC50 is greater than 56.8 µM.

Which IC50 does the source give for `COC(=O)c1cc(-n2c(O)c3c(c2O)C2(C)C=CC3(C)O2)ccc1Cl` [MLS000107828] here?
Its IC50 is greater than 56.8 µM.

With `Cc1ccc(-n2c(O)c3c(c2O)C2(C)C=CC3(C)O2)cc1` as the molecule, how does the IC50 read?
Its IC50 is 11.5 µM.

How did the IC50 turn out when `CC12C=CC(C)(O1)c1c2c(O)n(-c2ccccc2)c1O` [4,7-dimethyl-2-phenyl-3a,7a-dihydro-octahydro-1H-4,7-epoxyisoindole-1,3-dione] was run?
The IC50 was 11.7 µM.

How did the IC50 turn out when `CCCc1ccc(CC2=C(C(=O)OCC)C(=O)c3ccccc3C2=O)cc1` [MLS000571357] was run?
The IC50 was 7.19 µM.

`CC(=O)Oc1ccc(-n2c(O)c3c(c2O)C2(C)C=CC3(C)O2)cc1` [MLS000107813] was tested. Which IC50 did it give?
Its IC50 is 7.82 µM.

Which IC50 does the source give for `CC12C=CC(C)(O1)c1c2c(O)n(-c2ccc3c(c2)OCO3)c1O` here?
The IC50 was greater than 56.8 µM.

With `CCCCc1ccc(CC2=C(C(=O)OCC)C(=O)c3ccccc3C2=O)cc1` as the molecule, how does the IC50 read?
The IC50 was 16.2 µM.

`Cc1cccc(-n2c(O)c3c(c2O)C2(C)C=CC3(C)O2)c1` [4,7-dimethyl-2-(3-methylphenyl)-3a,7a-dihydro-octahydro-1H-4,7-epoxyisoindole-1,3-dione] was tested. Which IC50 did it give?
Its IC50 is 27.6 µM.

Which IC50 does the source give for `CC(=O)Oc1cccc(-n2c(O)c3c(c2O)C2(C)C=CC3(C)O2)c1` here?
Its IC50 is 12 µM and 18.3 µM.

How did the IC50 turn out when `CC(=O)Oc1ccc(-n2c(O)c3c(c2O)C2C=CC3O2)cc1` [[4-(1,3-dioxo-3a,4,7,7a-tetrahydro-octahydro-1H-4,7-epoxyisoindol-2-yl)phenyl] acetate] was run?
The IC50 was greater than 56.8 µM.
